Assay results from ChEMBL document CHEMBL4396870, “Pharmacological Chaperones for the Treatment of α-Mannosidosis” (J Med Chem, 2019).
Where a chain is given by its changes, count along the chain named.

Tests used:
[1] = system: T1, Lysosomal alpha-mannosidase (Homo sapiens), O00754 [L352P]; assay: Chaperone activity at human Lysosomal alpha-mannosidase L352P mutant transfected in human […] knockout HAP1 cells assessed as enzyme activity enhancement at 20 uM incubated for 96 hrs relative to control
T1 sequence (whole entry): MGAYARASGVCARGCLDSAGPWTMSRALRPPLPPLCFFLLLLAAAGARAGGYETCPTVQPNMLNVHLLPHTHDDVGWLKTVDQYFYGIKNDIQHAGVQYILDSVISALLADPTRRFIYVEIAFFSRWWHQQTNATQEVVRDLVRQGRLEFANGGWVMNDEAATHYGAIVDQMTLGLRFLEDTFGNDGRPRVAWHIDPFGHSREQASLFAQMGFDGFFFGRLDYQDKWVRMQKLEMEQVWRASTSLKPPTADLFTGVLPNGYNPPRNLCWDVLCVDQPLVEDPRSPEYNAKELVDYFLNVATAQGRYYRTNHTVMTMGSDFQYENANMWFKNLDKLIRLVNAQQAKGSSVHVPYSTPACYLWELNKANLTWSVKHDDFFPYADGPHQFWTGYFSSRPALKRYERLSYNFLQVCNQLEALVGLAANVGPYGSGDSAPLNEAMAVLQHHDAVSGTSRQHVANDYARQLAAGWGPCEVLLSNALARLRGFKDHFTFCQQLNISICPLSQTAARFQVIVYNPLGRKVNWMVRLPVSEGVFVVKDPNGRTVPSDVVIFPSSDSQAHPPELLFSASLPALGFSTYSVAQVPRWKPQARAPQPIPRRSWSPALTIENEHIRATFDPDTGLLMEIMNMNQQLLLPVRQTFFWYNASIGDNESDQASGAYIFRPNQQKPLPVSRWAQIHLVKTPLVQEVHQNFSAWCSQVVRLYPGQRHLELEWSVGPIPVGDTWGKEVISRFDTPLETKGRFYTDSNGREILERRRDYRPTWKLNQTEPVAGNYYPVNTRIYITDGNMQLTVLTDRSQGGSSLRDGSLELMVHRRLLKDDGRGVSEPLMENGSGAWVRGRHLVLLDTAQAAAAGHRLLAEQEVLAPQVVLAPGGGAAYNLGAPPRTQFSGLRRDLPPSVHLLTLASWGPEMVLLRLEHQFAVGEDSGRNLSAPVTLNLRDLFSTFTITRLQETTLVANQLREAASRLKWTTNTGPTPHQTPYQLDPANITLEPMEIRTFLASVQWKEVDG

[2] = system: T2, Lysosomal alpha-mannosidase (Homo sapiens), O00754 [R916C]; assay: Chaperone activity at human Lysosomal alpha-mannosidase R916C mutant transfected in human […] knockout HAP1 cells assessed as enzyme activity enhancement at 0.2 uM incubated for 96 hrs relative to control
T2 sequence (whole entry): T1 sequence (whole entry) with P352L, R916C

Activity [1] [%] | Activity [2] [%] | Structure (SMILES)
4 | 45 | COC[C@H]1O[C@@H]2O[C@H]3[C@H](OC)[C@@H](OC)[C@@H](O[C@H]4[C@H](OC)[C@@H](OC)[C@@H](O[C@H]5[C@H](OC)[C@@H](OC)[C@@H](O[C@H]6[C@H](OC)[C@@H](OC)[C@@H](O[C@H]7[C@H](OC)[C@@H](OC)[C@@H](O[C@H]8[C@H](OC)[C@@H](OC)[C@@H](O[C@H]1[C@H](OC)[C@H]2OC)O[C@@H]8COC)O[C@@H]7COC)O[C@@H]6COC)O[C@@H]5COCc1cn(CCCCCCN[C@@H]2[C@@H](O)[C@@H](O)[C@H](O)[C@H]5COC(=O)N52)nn1)O[C@@H]4COC)O[C@@H]3COC
3 | 8 | CC(C)(C)OC(=O)NCCCCCCCCCN[C@@H]1[C@@H](O)[C@@H](O)[C@H](O)[C@H]2COC(=O)N21
